Data: ChEMBL document CHEMBL1201862, “PubChem BioAssay data set” (2004)
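All cell lines were grown in 96-well plates and treated with compound for 48 hours. At the GI50, growth is halved.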 Active and inactive are the calls of the source. No stated cut-off is given here; in the data, active = GI50 up to about 1.1 µM and inactive = higher.

What was measured:
Assay in all cases: NCI-60 cell line screen, 48 h
MCF7 = system: MCF7
OVCAR-3 = system: OVCAR-3
OVCAR-8 = system: OVCAR-8
DU-145 = system: DU-145
SR = system: SR
HOP-92 = system: HOP-92
HL-60 = system: HL-60
HOP-62 = system: HOP-62
MDA-MB-435 = system: MDA-MB-435
BT-549 = system: BT-549
SN12C = system: SN12C
NCI-H23 = system: NCI-H23
MDA-MB-231 = system: MDA-MB-231
NCI-H226 = system: NCI-H226
SF-539 = system: SF-539
A498 = system: A498
SNB-75 = system: SNB-75
Hs-578T = system: Hs-578T
UACC-62 = system: UACC-62
OVCAR-4 = system: OVCAR-4

Row | SMILES | GI50 (MCF7) | GI50 (OVCAR-3) | GI50 (OVCAR-8) | GI50 (DU-145) | GI50 (SR) | GI50 (HOP-92) | GI50 (HL-60) | GI50 (HOP-62) | GI50 (MDA-MB-435) | GI50 (BT-549) | GI50 (SN12C) | GI50 (NCI-H23) | GI50 (MDA-MB-231) | GI50 (NCI-H226) | GI50 (SF-539) | GI50 (A498) | GI50 (SNB-75) | GI50 (Hs-578T) | GI50 (UACC-62) | GI50 (OVCAR-4)
1 | CC(C)(C)OCC1NC(=O)[C@@H]2Cc3c([nH]c4ccccc34)C(c3ccccc3)N2C1=O (stereo not given in full) | > 50 µM (inactive) | > 50 µM (inactive) | > 50 µM (inactive) | > 50 µM (inactive) | > 22.4 µM (inactive) | > 50 µM (inactive) | > 26.2 µM (inactive) | > 50 µM (inactive) | > 50 µM (inactive) | > 50 µM (inactive) | > 50 µM (inactive) | > 50 µM (inactive) | > 50 µM (inactive) | > 27.4 µM (inactive) | 30.1 µM (inactive) | > 50 µM (inactive) | > 50 µM (inactive) | > 50 µM (inactive) | > 50 µM (inactive) | > 50 µM (inactive)
2 | O=[N+]([O-])c1ccc2c3ccccc3[s+]([O-])c2c1 (stereo not given) | 74 µM (inactive) | 33 µM (inactive) | > 100 µM (inactive) | > 100 µM (inactive) | > 100 µM (inactive) | > 100 µM (inactive) | 88.5 µM (inactive) | > 100 µM (inactive) | > 100 µM (inactive) | > 100 µM (inactive) | > 100 µM (inactive) | > 100 µM (inactive) | > 100 µM (inactive) | > 100 µM (inactive) | > 100 µM (inactive) | > 100 µM (inactive) | > 100 µM (inactive) | > 100 µM (inactive) | > 100 µM (inactive) | > 100 µM (inactive)
3 | CCOP(=O)(OCC)/C(C#N)=C/c1cnc(-c2ccccc2)[nH]1 | > 100 µM (inactive) | > 100 µM (inactive) | > 100 µM (inactive) | > 100 µM (inactive) | > 100 µM (inactive) | > 100 µM (inactive) | > 100 µM (inactive) | > 100 µM (inactive) | 24.7 µM (inactive) | > 100 µM (inactive) | > 100 µM (inactive) | 79.6 µM (inactive) | > 100 µM (inactive) | > 100 µM (inactive) | 0.0887 µM (active) | > 100 µM (inactive) | > 100 µM (inactive) | > 100 µM (inactive) | > 100 µM (inactive) | > 100 µM (inactive)
4 | NS(=O)(=O)c1ccc(NC(=O)N/N=C/c2ccccc2[N+](=O)[O-])cc1 | 29.7 µM (inactive) | 30.1 µM (inactive) | 37.7 µM (inactive) | 72.3 µM (inactive) | 17.9 µM (inactive) | 65.3 µM (inactive) | 46.1 µM (inactive) | 40.8 µM (inactive) | 19 µM (inactive) | 45.4 µM (inactive) | 32.7 µM (inactive) | 41.6 µM (inactive) | 44.8 µM (inactive) | 42.9 µM (inactive) | 38.5 µM (inactive) | > 100 µM (inactive) | > 100 µM (inactive) | 46.6 µM (inactive) | 75.3 µM (inactive) | 59.8 µM (inactive)
5 | COc1cc2c(cc1OC)[C@@](C)(C(O)C(O)C(C)(C)O)NCC2 (stereo not given in full) | > 100 µM (inactive) | > 100 µM (inactive) | > 100 µM (inactive) | > 100 µM (inactive) | > 100 µM (inactive) | > 100 µM (inactive) | > 100 µM (inactive) | > 100 µM (inactive) | > 100 µM (inactive) | > 100 µM (inactive) | > 100 µM (inactive) | > 100 µM (inactive) | > 100 µM (inactive) | > 100 µM (inactive) | > 100 µM (inactive) | > 100 µM (inactive) | > 100 µM (inactive) | > 100 µM (inactive) | > 100 µM (inactive) | > 100 µM (inactive)
6 | COC(=O)c1sc2c(Cl)c(Cl)sc2c1Cl | 50.5 µM (inactive) | 93.8 µM (inactive) | > 100 µM (inactive) | > 100 µM (inactive) | > 100 µM (inactive) | > 100 µM (inactive) | > 100 µM (inactive) | 30.7 µM (inactive) | > 100 µM (inactive) | > 100 µM (inactive) | > 100 µM (inactive) | > 100 µM (inactive) | > 100 µM (inactive) | > 100 µM (inactive) | 66.7 µM (inactive) | > 100 µM (inactive) | > 100 µM (inactive) | > 100 µM (inactive) | > 100 µM (inactive) | > 100 µM (inactive)
7 | C1=N\c2ccc(cc2)-c2ccc(cc2)/N=C\c2ccccc2OCc2cccc(n2)COc2ccccc2/1 | > 100 µM (inactive) | > 100 µM (inactive) | 31.8 µM (inactive) | > 80.5 µM (inactive) | > 100 µM (inactive) | 10.9 µM (inactive) | > 100 µM (inactive) | 5.27 µM (inactive) | > 100 µM (inactive) | 32.7 µM (inactive) | > 81.3 µM (inactive) | 15.1 µM (inactive) | 34 µM (inactive) | 39.5 µM (inactive) | 26.7 µM (inactive) | 65.9 µM (inactive) | 2.83 µM (inactive) | 13.1 µM (inactive) | 39.4 µM (inactive) | > 100 µM (inactive)
8 | COc1cccc2c1Cc1cc(-c3ccccc3)[n+](C)n1-2 | 2.3 µM (inactive) | 2.92 µM (inactive) | 6.84 µM (inactive) | 30.1 µM (inactive) | 7.57 µM (inactive) | 13.7 µM (inactive) | 4.06 µM (inactive) | 42.3 µM (inactive) | 11.8 µM (inactive) | 22.5 µM (inactive) | 8.85 µM (inactive) | 9.77 µM (inactive) | 13.2 µM (inactive) | 11.7 µM (inactive) | 5.4 µM (inactive) | 31.5 µM (inactive) | 20 µM (inactive) | 25.1 µM (inactive) | 15 µM (inactive) | 3.19 µM (inactive)
9 | CCN(CC)CCC(=O)c1ccc(C)cc1 | 4.88 µM (inactive) | 17.7 µM (inactive) | 33.4 µM (inactive) | 39.6 µM (inactive) | 28 µM (inactive) | 18.2 µM (inactive) | 24.5 µM (inactive) | > 100 µM (inactive) | 19 µM (inactive) | 22.4 µM (inactive) | 36.9 µM (inactive) | 21.3 µM (inactive) | 14.9 µM (inactive) | 28.6 µM (inactive) | 88.3 µM (inactive) | 16.4 µM (inactive) | 11.5 µM (inactive) | 61.5 µM (inactive) | 28.4 µM (inactive) | 23.5 µM (inactive)
